{"source": "paper PMC10611442", "about": "“Amelogenin Peptide-Chitosan Hydrogel for Biomimetic Enamel Regrowth” (Frontiers in dental medicine, 2021)", "assay": "Nanoindentation (hardness and elastic modulus) of remineralized enamel sections", "design": "species or system human", "conditions": "demineralization 2 h pH 4.6; 7-day mineralization cycle in artificial saliva, daily application, hydrogels 0.2 mg/ml; mean ± SD", "procedure": "To enhance the mechanical responses, the remineralization cycle was optimized and extended to 7 days. After demineralization, each tooth setting (comprising 3 or 4 teeth sections) was placed into separate cylindrical containers containing remineralization solution (30 ml, pH 7, RT) for 1 week. Experimental groups included healthy enamel, demineralized enamel, control (900 ppm F^−; 0.2% NaF), P26-CS and P32-CS (n = 3 per group).\nEvery 24 h after the start of the remineralization cycle, 30 μL of NaF solution (900 ppm F^−; 0.2% NaF) was added on top of each tooth for 10 min per day. The teeth were gently rinsed in distilled water and dried. A fresh 20 μl treatment application (P26-CS and P32-CS) was made to each window, followed by air drying for 15 min at RT and then the samples were returned to the fresh stock of remineralization solution. The remineralization solution and peptide were replaced daily. After 1 week of daily treatment application, the slices were sonicated, rinsed, dried, and stored in distilled water at 4°C for nanoindentation. The hardness and elastic modulus of the peptide-mediated mineralized layers were evaluated by nanoindentation tests. The device was calibrated to examine the mechanical properties of the remineralized HAP layers on teeth slices at the nanoscale. […]"}
{"smiles": "[F-].[Na+]", "note": "[0.2% NaF, NaF]", "values": [{"measurement": "elastic modulus of regrown enamel (nanoindentation)", "value": "40.57 ± 15.8", "unit": "GPa"}, {"measurement": "hardness of regrown enamel (nanoindentation)", "value": "1.3 ± 0.6", "unit": "GPa"}]}
